Assay results as given in patent publication US20050222200A1, “AMIDE DERIVATIVES AS ION CHANNEL LIGANDS AND PHARMACEUTICAL COMPOSITIONS AND METHODS OF USING THE SAME” (Renovis, Inc., priority 2003, published 2005).

Target: T1, VR1 (Homo sapiens, UniProt Q8NER1)
T1 construct: expressed in transfected cells; host or cells: 293 cells ("293 neurons" [sic])
Experiment: High throughput calcium imaging assay of VR1 antagonists (Fura2, Flex Station, 96 well); note: test concentration or dose not given here
Format: cell-based
Conditions: Table 1 activity class

T1 sequence (Q8NER1 whole entry, species assumed): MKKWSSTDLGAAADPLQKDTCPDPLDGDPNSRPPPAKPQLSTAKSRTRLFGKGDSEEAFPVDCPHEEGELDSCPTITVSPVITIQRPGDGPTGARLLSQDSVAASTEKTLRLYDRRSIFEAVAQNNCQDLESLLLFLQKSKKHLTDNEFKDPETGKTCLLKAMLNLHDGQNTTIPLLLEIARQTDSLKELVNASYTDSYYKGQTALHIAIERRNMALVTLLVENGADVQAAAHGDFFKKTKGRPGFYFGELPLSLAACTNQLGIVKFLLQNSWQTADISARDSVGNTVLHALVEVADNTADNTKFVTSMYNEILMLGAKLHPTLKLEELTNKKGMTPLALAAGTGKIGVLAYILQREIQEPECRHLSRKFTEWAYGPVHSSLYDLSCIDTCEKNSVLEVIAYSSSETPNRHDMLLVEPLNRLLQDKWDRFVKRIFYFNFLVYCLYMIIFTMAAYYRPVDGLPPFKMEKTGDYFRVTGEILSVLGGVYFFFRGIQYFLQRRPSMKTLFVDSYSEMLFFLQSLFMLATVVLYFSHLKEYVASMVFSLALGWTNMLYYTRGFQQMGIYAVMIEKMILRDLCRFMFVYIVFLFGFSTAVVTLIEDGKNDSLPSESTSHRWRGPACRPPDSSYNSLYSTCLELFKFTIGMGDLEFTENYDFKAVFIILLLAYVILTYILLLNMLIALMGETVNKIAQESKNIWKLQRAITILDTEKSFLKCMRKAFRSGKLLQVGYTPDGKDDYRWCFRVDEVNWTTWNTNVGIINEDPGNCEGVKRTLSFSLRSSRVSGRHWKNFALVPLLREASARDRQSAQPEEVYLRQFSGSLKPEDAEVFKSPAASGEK

Row | SMILES | inhibition of calcium ion influx induced by capsaicin stimulation
1 | Cc1nccc(NC(=O)c2ccc(/C=C/C(C)(C)C)cc2)n1 [Compound 77] | + (compound exhibited 0-25% inhibition of calcium ion influx induced by capsaicin stimulation)
2 | CC(C)(C)/C=C/c1ccc(C(=O)Nc2ccc3ncccc3c2)cc1 [Compound 78] | ++++ (compound exhibited 75% or greater inhibition of calcium ion influx induced by capsaicin stimulation)
3 | CC(C)(C)/C=C/c1ccc(C(=O)NCc2cccnc2)cc1 [Compound 80] | + (compound exhibited 0-25% inhibition of calcium ion influx induced by capsaicin stimulation)
4 | CN(C)c1ccc(CNC(=O)c2ccc(/C=C/C(C)(C)C)cc2)cc1 [Compound 81] | + (compound exhibited 0-25% inhibition of calcium ion influx induced by capsaicin stimulation)
5 | COc1ccccc1CNC(=O)c1ccc(/C=C/C(C)C)cc1 [Compound 87] | + (compound exhibited 0-25% inhibition of calcium ion influx induced by capsaicin stimulation)
6 | CC(C)/C=C/c1ccc(C(=O)NCc2ccco2)cc1 [Compound 88] | ++ (compound exhibited 25-50% inhibition of calcium ion influx induced by capsaicin stimulation)
7 | CC(C)/C=C/c1ccc(C(=O)NCc2ccncc2)cc1 [Compound 93] | + (compound exhibited 0-25% inhibition of calcium ion influx induced by capsaicin stimulation)
8 | CC(C)/C=C/c1ccc(C(=O)NC(c2ccccc2)c2ccccc2)cc1 [Compound 95] | ++ (compound exhibited 25-50% inhibition of calcium ion influx induced by capsaicin stimulation)
9 | CC(C)/C=C/c1ccc(C(=O)NCCc2ccccc2Cl)cc1 [Compound 98] | + (compound exhibited 0-25% inhibition of calcium ion influx induced by capsaicin stimulation)
10 | CC(C)/C=C/c1ccc(C(=O)Nc2ccncc2)cc1 [Compound 105] | ++ (compound exhibited 25-50% inhibition of calcium ion influx induced by capsaicin stimulation)
11 | CC(C)/C=C/c1ccc(C(=O)Nc2cccnc2)cc1 [Compound 106] | ++ (compound exhibited 25-50% inhibition of calcium ion influx induced by capsaicin stimulation)
12 | CC(C)/C=C/c1ccc(C(=O)NCC2CCCO2)cc1 (stereo not shown) [Compound 109] | ++ (compound exhibited 25-50% inhibition of calcium ion influx induced by capsaicin stimulation)
13 | CC(C)/C=C/c1ccc(C(=O)NCc2ccc3c(c2)OCO3)cc1 [Compound 111] | +++ (compound exhibited 50-75% inhibition of calcium ion influx induced by capsaicin stimulation)
14 | CC(C)/C=C/c1ccc(C(=O)NCCN2CCOCC2)cc1 [Compound 112] | ++ (compound exhibited 25-50% inhibition of calcium ion influx induced by capsaicin stimulation)
15 | CC(C)/C=C/c1ccc(C(=O)NCCc2ccc(S(N)(=O)=O)cc2)cc1 [Compound 116] | + (compound exhibited 0-25% inhibition of calcium ion influx induced by capsaicin stimulation)
16 | COc1cc(CNC(=O)c2ccc(/C=C/C(C)C)cc2)cc(OC)c1OC [Compound 117] | + (compound exhibited 0-25% inhibition of calcium ion influx induced by capsaicin stimulation)
17 | CC(C)/C=C/c1ccc(C(=O)NCc2ccccn2)cc1 [Compound 120] | + (compound exhibited 0-25% inhibition of calcium ion influx induced by capsaicin stimulation)
18 | COc1ccc(CCNC(=O)c2ccc(/C=C/C(C)C)cc2)cc1OC [Compound 121] | +++ (compound exhibited 50-75% inhibition of calcium ion influx induced by capsaicin stimulation)
19 | CC(C)/C=C/c1ccc(C(=O)NCCc2c[nH]c3ccccc23)cc1 [Compound 123] | + (compound exhibited 0-25% inhibition of calcium ion influx induced by capsaicin stimulation)
20 | CC(C)/C=C/c1ccc(C(=O)NCCN2CCNCC2)cc1 [Compound 125] | ++++ (compound exhibited 75% or greater inhibition of calcium ion influx induced by capsaicin stimulation)
21 | CCNC(=O)c1ccc(/C=C/C(C)C)cc1 [Compound 126] | ++ (compound exhibited 25-50% inhibition of calcium ion influx induced by capsaicin stimulation)
22 | CC(C)/C=C/c1ccc(C(=O)NCc2cccs2)cc1 [Compound 127] | ++ (compound exhibited 25-50% inhibition of calcium ion influx induced by capsaicin stimulation)
23 | CCN(CC)c1ccc(NC(=O)c2ccc(/C=C/C(C)C)cc2)cc1 [Compound 130] | +++ (compound exhibited 50-75% inhibition of calcium ion influx induced by capsaicin stimulation)
24 | COc1ccccc1NC(=O)c1ccc(/C=C/C(C)C)cc1 [Compound 132] | + (compound exhibited 0-25% inhibition of calcium ion influx induced by capsaicin stimulation)
25 | CC(C)/C=C/c1ccc(C(=O)Nc2ccccc2Cl)cc1 [Compound 136] | + (compound exhibited 0-25% inhibition of calcium ion influx induced by capsaicin stimulation)

Row | SMILES | inhibition of calcium ion influx induced by capsaicin stimulation
26 | CC(C)/C=C/c1ccc(C(=O)NCC(C)C)cc1 [Compound 139] | + (compound exhibited 0-25% inhibition of calcium ion influx induced by capsaicin stimulation)
27 | COc1ccc(CNC(=O)c2ccc(/C=C/C(C)C)cc2)cc1OC [Compound 142] | + (compound exhibited 0-25% inhibition of calcium ion influx induced by capsaicin stimulation)
28 | CC(C)/C=C/c1ccc(C(=O)NCc2cccc(F)c2)cc1 [Compound 143] | + (compound exhibited 0-25% inhibition of calcium ion influx induced by capsaicin stimulation)
29 | COc1ccc(NC(=O)c2ccc(/C=C/C(C)C)cc2)cc1Cl [Compound 145] | + (compound exhibited 0-25% inhibition of calcium ion influx induced by capsaicin stimulation)
30 | CC(C)/C=C/c1ccc(C(=O)Nc2ccc(Cl)c(C(F)(F)F)c2)cc1 [Compound 148] | + (compound exhibited 0-25% inhibition of calcium ion influx induced by capsaicin stimulation)
31 | CC(C)/C=C/c1ccc(C(=O)Nc2cccc(C#N)c2)cc1 [Compound 150] | ++ (compound exhibited 25-50% inhibition of calcium ion influx induced by capsaicin stimulation)
32 | CC(C)/C=C/c1ccc(C(=O)Nc2ccccc2CCO)cc1 [Compound 151] | +++ (compound exhibited 50-75% inhibition of calcium ion influx induced by capsaicin stimulation)
33 | CC(C)/C=C/c1ccc(C(=O)Nc2ccc(C(C)C)cc2)cc1 [Compound 153] | ++++ (compound exhibited 75% or greater inhibition of calcium ion influx induced by capsaicin stimulation)
34 | Cc1ccc(NC(=O)c2ccc(/C=C/C(C)C)cc2)c(C)c1 [Compound 156] | + (compound exhibited 0-25% inhibition of calcium ion influx induced by capsaicin stimulation)
35 | CC(C)/C=C/c1ccc(C(=O)Nc2ccc3[nH]ccc3c2)cc1 [Compound 158] | ++ (compound exhibited 25-50% inhibition of calcium ion influx induced by capsaicin stimulation)
36 | CCC(C)(C)NC(=O)c1ccc(/C=C/C(C)C)cc1 [Compound 164] | + (compound exhibited 0-25% inhibition of calcium ion influx induced by capsaicin stimulation)
37 | CC(C)/C=C/c1ccc(C(=O)Nc2ccc(Cl)nc2)cc1 [Compound 166] | + (compound exhibited 0-25% inhibition of calcium ion influx induced by capsaicin stimulation)
38 | CC(C)/C=C/c1ccc(C(=O)Nc2ccnc(Cl)c2)cc1 [Compound 168] | + (compound exhibited 0-25% inhibition of calcium ion influx induced by capsaicin stimulation)
39 | CC(C)/C=C/c1ccc(C(=O)Nc2ccc3c(c2)OCO3)cc1 [Compound 169] | +++ (compound exhibited 50-75% inhibition of calcium ion influx induced by capsaicin stimulation)
40 | CC(C)/C=C/c1ccc(C(=O)Nc2ccc3ncccc3c2)cc1 [Compound 171] | ++ (compound exhibited 25-50% inhibition of calcium ion influx induced by capsaicin stimulation)
41 | CCn1c2ccccc2c2cc(NC(=O)c3ccc(/C=C/C(C)C)cc3)ccc21 [Compound 172] | ++ (compound exhibited 25-50% inhibition of calcium ion influx induced by capsaicin stimulation)
42 | CC(C)/C=C/c1ccc(C(=O)Nc2ccc3c(c2)Cc2ccccc2-3)cc1 [Compound 175] | + (compound exhibited 0-25% inhibition of calcium ion influx induced by capsaicin stimulation)
43 | CCC/C=C/c1ccc(C(=O)NC(C)C)cc1 [Compound 179] | + (compound exhibited 0-25% inhibition of calcium ion influx induced by capsaicin stimulation)
44 | CCC/C=C/c1ccc(C(=O)NC2CCCCC2)cc1 [Compound 181] | + (compound exhibited 0-25% inhibition of calcium ion influx induced by capsaicin stimulation)
45 | CCC/C=C/c1ccc(C(=O)NCc2ccco2)cc1 [Compound 183] | + (compound exhibited 0-25% inhibition of calcium ion influx induced by capsaicin stimulation)
46 | CCC/C=C/c1ccc(C(=O)NCc2ccc(C(C)C)cc2)cc1 [Compound 185] | + (compound exhibited 0-25% inhibition of calcium ion influx induced by capsaicin stimulation)
47 | CCC/C=C/c1ccc(C(=O)NCCCn2ccnc2)cc1 [Compound 190] | + (compound exhibited 0-25% inhibition of calcium ion influx induced by capsaicin stimulation)
48 | CCC/C=C/c1ccc(C(=O)NC(c2ccccc2)c2ccccc2)cc1 [Compound 191] | + (compound exhibited 0-25% inhibition of calcium ion influx induced by capsaicin stimulation)
49 | CCC/C=C/c1ccc(C(=O)NCCN2CCCC2)cc1 [Compound 192] | + (compound exhibited 0-25% inhibition of calcium ion influx induced by capsaicin stimulation)
